Measurements reported in the NIST ThermoML archive (doi:10.1021/acs.jced.6b00733).
Numbers after ± are expanded uncertainties.

Assays:
[1] = Liquid, Ebulliometric method (Recirculating still)
[2] = refractive index (Na D-line) (dimensionless); conditions: 298.15 K; 101.3 kPa; Liquid; Standard Abbe refractometry

**Q.** With `CC(C)CCO` [3-methylbutan-1-ol] as the molecule, how does the “vapor or sublimation pressure” value ([1]; 404.05 K) read?
**A.** The value was 101.33 ± 1 kPa.

**Q.** What about the refractive index [2] of the same molecule?
**A.** Its refractive index is 1.4042 ± 0.0004.

**Q.** Which “vapor or sublimation pressure” value ([1]; 415.19 K) does the source give for `CC(=O)OCCC(C)C` [3-methylbutyl ethanoate] here?
**A.** The value was 101.33 ± 1 kPa.

**Q.** What about the refractive index [2] of the same molecule?
**A.** The refractive index was 1.3977 ± 0.0004.

**Q.** For `c1ccccc1` [benzene], which “vapor or sublimation pressure” value ([1]; 353.27 K) is on record?
**A.** The value was 101.33 ± 1 kPa.

**Q.** Which results are given for `C[S+](C)[O-]` [dimethyl sulfoxide]?
**A.** vapor or sublimation pressure ([1]; 463.93 K): 101.33 ± 1 kPa; refractive index [2]: 1.4779 ± 0.0004

**Q.** With `Cc1ccccc1` [toluene] as the molecule, how does the “vapor or sublimation pressure” value ([1]; 383.82 K) read?
**A.** The value was 101.33 ± 1 kPa.
